Laboratory results published in US8927583B2, “Pesticidal composition comprising a 2-pyrdilmethylbenzamide derivative and an insecticide compound” (Bayer Cropscience AG, priority 2006, dated 2015).

Legend:
Format in all cases: in vivo
[1] = tested on: Plutella xylostella; test: Plutella xylostella test (cabbage leaf dip, larvae mortality); conditions: mortality after 3 d, cabbage leaves
Protocol: To produce a suitable preparation of active compound, 1 part by weight of active compound is mixed with the stated amount of solvent and emulsifier, and the concentrate is diluted with emulsifier-containing water to the desired concentration. Cabbage leaves (Brassica oleracea) are treated by being dipped into the preparation of the active compound of the desired concentration and are infested with larvae of the diamond back moth (Plutella xylostella) as long as the leaves are still moist. After the specified period of time, the mortality in % is determined. 100% means that all the caterpillars have been killed; 0% means that none of the caterpillars have been killed.

[2] = tested on: Spodoptera frugiperda; test: Spodoptera frugiperda test (cabbage leaf dip, larvae mortality); conditions: cabbage leaves; for Efficacy in % after 6 d: mortality after 6 d; for Efficacy in % after 4 d: mortality after 4 d
Protocol: (§1) To produce a suitable preparation of active compound, 1 part by weight of active compound is mixed with the stated amount of solvent and emulsifier, and the concentrate is diluted with emulsifier-containing water to the desired concentration.
Cabbage leaves (Brassica oleracea) are treated by being dipped into the preparation of the active compound of the desired concentration and are infested with larvae of the fall army worm (Spodoptera frugiperda) as long as the leaves are still moist.
(§2) After the specified period of time, the mortality in % is determined. 100% means that all the caterpillars have been killed; 0% means that none of the caterpillars have been killed.

[3] = tested on: Spodoptera exigua; test: Spodoptera exigua test (cabbage leaf dip, larvae mortality); conditions: 500 ppm, mortality after 3 d, cabbage leaves
Protocol: as §1
Cabbage leaves (Brassica oleracea) are treated by being dipped into the preparation of the active compound of the desired concentration and are infested with larvae of the beet army worm (Spodoptera exigua) as long as the leaves are still moist.
as §2

In the case of `CN/C(=N\[N+](=O)[O-])NCc1cnc(Cl)s1` [Clothianidin], the “Efficacy in % after 3 d” value ([1]; 4 ppm) is reported as 0%.
With `O=C(NCc1ncc(C(F)(F)F)cc1Cl)c1c(Cl)cccc1Cl` [Fluopicolide, 2,6-dichloro-N-{[3-chloro-5-(trifluoromethyl)-2-pyridinyl]methyl}-benzamide] the “Efficacy in % after 3 d” value ([1]; 200 ppm) was 0%, the “Efficacy in % after 6 d” value ([2]; 200 ppm) was 0% and the “Efficacy in % after 4 d” value ([2]; 500 ppm) was 0%. The “Efficacy in % after 3 d” value [3] was 0%.
`O=[N+]([O-])NC1=NCCN1Cc1ccc(Cl)nc1` [Imidacloprid] was tested, and the “Efficacy in % after 3 d” value [3] was 40%.
In the case of `N#C/N=C1\SCCN1Cc1ccc(Cl)nc1` [Thiacloprid], the “Efficacy in % after 4 d” value ([2]; 20 ppm) is reported as 25%.
In the case of `CN1COCN(Cc2cnc(Cl)s2)/C1=N\[N+](=O)[O-]` [Thiamethoxam], the “Efficacy in % after 6 d” value ([2]; 100 ppm) is reported as 0%.
